Laboratory results reported in US20240216397A1, “COMPOSITION FOR AMELIORATING SKIN TISSUE ABNORMALITY” (Kyoto University, priority 2021, published 2024).
Counter-ions that a name gives are not always drawn.

Experiments:
[1] = tested on: atopic dermatitis-like skin inflammation induced by repeated applications of MC903; experiment: Model mice of MC903-induced atopic dermatitis-like skin inflammation: auricle appearance and auricular thickness; assay type: in vivo, C57BL/6N female mice; settings: 10 μL of 5 mM topically to each side of left auricle daily for 10 days, MC903 every other day; vs MC903 + EtOH
Protocol: (§1) The effect of KUS121 application on atopic dermatitis was evaluated. For modeling atopic dermatitis, model mice of atopic dermatitis-like skin inflammation induced by repeated applications of MC903, an active vitamin D3 analog, were used. Eight-week-old C57BL/6N female mice were used (purchased from SHIMIZU Laboratory Supplies Co., Ltd.). Under isoflurane anesthesia, the following substances were applied for 10 days. After 10 μL of 5 mM KUS121 (solvent: 90% EtOH) or 90% EtOH was applied to each side of the left auricle, 10 μL of 100 μM MC903 (solvent: 100% EtOH) was applied on each side. From the start of the substance application, KUS121 or 90% EtOH was applied daily and MC903 was applied every other day. The auricular thicknesses were measured immediately before the substance application using a constant pressured thickness measuring instrument (Tecloc). The thicknesses were measured immediately before the first substance application and then every other day for ten days. In addition, the effect of KUS121 alone was evaluated by the following substance applications. To each side of the left auricle 10 μL of 5 mM KUS121 was applied daily and to each side of the right auricle 10 μL of 90% EtOH was applied daily. The auricular thicknesses were measured immediately before the first substance application and then every other day for ten days. A blood sample was collected from a buccal vein on day 11 from the first substance application (14 hours after the substance application on day 10). The blood was allowed to stand at room temperature for at least 30 minutes, the serum was separated by centrifugation (1500×g, 10 minutes), and the serum levels of immunoglobulins (IgE and IgG1) was measured using Elisa kit (Bethyl Laboratories).
The experiments were performed as in Example 1, except for KUS187 was used in place of KUS121. The appearance of the auricle was observed and the auricular thicknesses were measured. […] The mice applied with MC903 and treated with EtOH had skin redness, desquamation, and crust as well as increased auricular thickness.

KLK7 = KLK7 mRNA expression in auricular sections of MC903 model mice; assay type: in vivo, C57BL/6N female mice; settings: mice treated as in Example 1; 5 mM topical + MC903; vs MC903 + EtOH
Protocol: as §1, with “From the start of the substance application, KUS121 or 90% EtOH was applied daily and MC903 was applied every other day.” left out, “To each side of the left auricle 10 μL of 5 mM KUS121 was applied daily and to each side of the right auricle 10 μL of 90% EtOH was applied daily.” left out, “A blood sample was collected from a buccal vein on day 11 from the first substance application (14 hours after the substance application on day 10).” left out, “Laboratories). […]” for “Laboratories).”

[2] = tested on: epidermal thickening and infiltration of inflammatory cells into the dermis; experiment: HE staining of auricular sections of MC903 model mice; assay type: in vivo, C57BL/6N female mice; settings: auricular sections day 11; 5 mM topical daily + MC903; vs MC903 + EtOH
Protocol: (§2) After the blood collection in Example 1, the mice were sacrificed by cervical dislocation and auricular sections were collected. Some of the auricular sections were paraffin-embedded and other sections were served for RNA extraction. The paraffin-embedded sections were observed by hematoxylin-eosin (HE) staining. RNA was extracted from the sections and cDNA was synthesized. The expression levels of various genes were analyzed by real-time PCR with SYBR Green using each cDNA as a template. Gapdh was used as an internal standard.

skin barrier function = experiment: Transepidermal water loss and auricular thickness in MC903-applied mice (skin barrier function); assay type: in vivo, C57BL6/N female mice; settings: 5 mM topical daily for 12 days + MC903 every other day; vs MC903 + EtOH
Protocol: The effect of KUS121 application on skin barrier function was evaluated by determining transepidermal water loss. Six- to eight-week-old C57BL6/N female mice (purchased from Oriental Bioservice, Inc) were used. The mice were anesthetized by subcutaneously injecting 150 μL of three types of mixed anesthesia (1 mg/mL medetomidine hydrochloride, 5 mg/mL mitazolam, 5 mg/mL butorphanol tartrate, solvent: sterile distilled water). Under anesthesia the following substances were applied for 12 days. For each mouse 10 μL of 5 mM KUS121 was applied to each side of the left auricle and 10 μL of 90% EtOH was applied to each side of the right auricle. Some mice were additionally applied with 10 μL of 100 μM MC903 on each side of both auricles every other day; KUS121 or 90% EtOH was applied at first and then MC903 was applied. The levels of transepidermal water loss was determined using APO SCAN AS-VT100 (Asahi Techno Lab. ltd.). The auricular thicknesses were measured immediately before the first substance application and daily for subsequent 12 days. The levels of transepidermal water loss were determined on days 0, 2, 4, 6, 8, 10, 11, and 12 immediately before the substance applications in each day.

IgG1 = experiment: Serum IgG1 level (Elisa kit) in MC903 model mice; assay type: in vivo, C57BL/6N female mice; settings: serum on day 11; 5 mM topical daily + MC903; vs MC903 + EtOH
Protocol: as §1, with “From the start of the substance application, KUS121 or 90% EtOH was applied daily and MC903 was applied every other day.” left out, “To each side of the left auricle 10 μL of 5 mM KUS121 was applied daily and to each side of the right auricle 10 μL of 90% EtOH was applied daily.” left out, “A blood sample was collected from a buccal vein on day 11 from the first substance application (14 hours after the substance application on day 10).” left out

[3] = tested on: psoriasis induced by repeated applications of 5% imiquimod cream; experiment: Model mice of imiquimod-induced psoriasis: auricular thickness; assay type: in vivo, C57BL6/N female mice; settings: 5 mM topical daily for 6 or 18 days + 5% imiquimod cream; vs imiquimod + EtOH
Protocol: The effect of KUS121 application on psoriasis was evaluated. For modeling psoriasis, model mice of psoriasis induced by repeated applications of 5% imiquimod cream was used. Six- to eight-week-old C57BL6/N female mice (purchased from Oriental Bioservice, Inc) were used. The mice were anesthetized by subcutaneously injecting 150 μL of three types of mixed anesthesia. Under anesthesia the following substances were applied for 6 or 18 days. After 10 μL of 5 mM KUS121 or 90% EtOH was applied to each side of the left auricle, 5 mg of 5% imiquimod cream (MOCHIDA PHARMACEUTICAL CO., LTD.) was applied on each side. KUS121 or 90% EtOH was applied daily and imiquimod cream was applied on days 0, 2, 4, 7, 9, 11, 14, and 16. The auricular thicknesses were measured immediately before the substance applications.

Keratin 6a (Krt6a) = experiment: Krt6a mRNA expression in auricular sections, real-time PCR; assay type: in vivo, C57BL/6N female mice; settings: auricular sections day 11; Gapdh internal standard; 5 mM topical + MC903; vs MC903 + EtOH
Protocol: as §2

Filaggrin (Flg) = experiment: Flg mRNA expression in auricular sections, real-time PCR; assay type: in vivo, C57BL/6N female mice; settings: auricular sections day 11; Gapdh internal standard; 5 mM topical + MC903; vs MC903 + EtOH and EtOH alone
Protocol: as §2

IgE = experiment: Serum IgE level (Elisa kit) in MC903 model mice; assay type: in vivo, C57BL/6N female mice; settings: serum on day 11; 5 mM topical daily + MC903; vs MC903 + EtOH
Protocol: as §1, with “From the start of the substance application, KUS121 or 90% EtOH was applied daily and MC903 was applied every other day.” left out, “To each side of the left auricle 10 μL of 5 mM KUS121 was applied daily and to each side of the right auricle 10 μL of 90% EtOH was applied daily.” left out, “A blood sample was collected from a buccal vein on day 11 from the first substance application (14 hours after the substance application on day 10).” left out

[4] = tested on: irritant contact dermatitis induced by sodium dodecyl sulfate (SDS); experiment: Model mice of SDS-induced irritant contact dermatitis: auricular thickness; assay type: in vivo, C57BL6/J male mice; settings: 5 mM topical daily for 4 days + 4% SDS daily; vs SDS + EtOH
Protocol: The effect of KUS121 application on irritant contact dermatitis was evaluated. For modeling irritant contact dermatitis, model mice of irritant contact dermatitis induced by sodium dodecyl sulfate (SDS) was used. Ten-week-old C57BL6/J male mice (purchased from Oriental Bioservice, Inc) were used. The mice were anesthetized by subcutaneously injecting 150 μL of three types of mixed anesthesia. Under anesthesia the following substances were applied for 4 days. After 10 μL of 5 mM KUS121 or 90% EtOH was applied to each side of the left auricle, 10 μL of 4% SDS was applied on each side. The substances were applied daily and the auricular thicknesses were measured immediately before the substance applications.

[5] = tested on: itching in atopic dermatitis-like skin inflammation induced by MC903; experiment: Itching (scratching behavior) and auricular thickness in MC903 model mice, treatment started on day 6; assay type: in vivo, C57BL/6N female mice
Protocol: The effect of KUS121 application on itching was evaluated. For modeling itching, model mice of atopic dermatitis-like skin inflammation induced by repeated applications of MC903 were used. Eight-week-old C57BL/6N female mice (purchased from SHIMIZU Laboratory Supplies Co., Ltd.) were used. Under isoflurane anesthesia, the following substances were applied for 15 days. 10 μL of 100 μM MC903 was applied on each side of both auricles every three days. To each side of the left auricle 10 μL of 5 mM KUS121 was applied daily and to each side of the right auricle 10 μL of 90% EtOH was applied daily. The application of KUS121 or 90% EtOH was started on day 6 from the first substance application; KUS121 or 90% EtOH was applied at first and then MC903 was applied. On day 12 from the start of the treatment, 1 to 2 hours after the substance application, five mice awakened from anesthesia were left in a shooting box (SHINANO manufacturing CO., LTD, W 25×D 25×H 30 cm) and their behavior was recorded from above using a video camera (Victor). Scratching behavior was evaluated by counting the total number of ear contacts by the front paws and determining the total scratching time by the hind paws within one hour from the start of the recording. The data of the five mice were summed and the total values were adopted as the results.

| SMILES | auricular thickness [1] | skin lesion (skin redness, desquamation, crust), appearance of auricle [1] | KLK7 expression (messenger RNA) (KLK7) | lesions in HE staining (epidermal thickening, infiltration of inflammatory cells such as eosinophils into the dermis) [2] | auricular thickness (skin barrier function) | transepidermal water loss from auricular skin (skin barrier function) | blood level of IgG1 (IgG1) | auricular thickness [3] | Krt6a expression (messenger RNA) (Keratin 6a (Krt6a)) | Flg expression (messenger RNA) (Filaggrin (Flg)) | blood level of IgE (IgE) | auricular thickness [4] | scratching behavior (number of ear contacts by front paws, scratching time by hind paws within one hour) ([5]; day 12, 5 mM topical daily from day 6, MC903 every three days, vs MC903 + EtOH) | increase of auricular thickness ([5]; treatment started after 6 days from the start of MC903 application, 5 mM topical daily) |
| --- | --- | --- | --- | --- | --- | --- | --- | --- | --- | --- | --- | --- | --- | --- |
| CCCCOc1c(C=O)cc(C)cc1-c1ccc(/N=N/c2cc(S(=O)(=O)O)c3ccccc3c2N)cn1 [KUS187, 4-amino-3-[6-(3-formyl-2-butoxy-5-methylphenyl)pyridine-3-ylazo] naphthalene-1-sulfonic acid sodium salt] | less increased auricular thickness | less skin lesion | – | – | – | – | – | – | – | – | – | – | – | – |
| Cc1cc(F)ccc1-c1ccc(/N=N/c2cc(S(=O)(=O)O)c3ccccc3c2N)cn1 [KUS121, 4-amino-3-[6-(4-fluoro-2-methylphenyl)pyridine-3-ylazo]naphthalene-1-sulfonic acid sodium salt] | less increased auricular thickness | less skin lesion | the increase was suppressed | suppressed more strongly | increases were suppressed | increases were suppressed | lower | No difference | weaker | elevated | lower | the increase was suppressed | less | suppressed |
